Data on 16 molecules can be found in patent US7598273B2, “Inhibitors of the gastric H+, K+-ATPase with enhanced therapeutic properties” (Auspex Pharmaceuticals, Inc, priority 2005, dated 2009).

One data set concerns pylorus-ligated rats. In words: Rat gastric activity, pylorus ligation (antisecretory activity). In kind it is in vivo. The conditions noted are these: PO 30 mg/kg, 30 minutes before ligation, gastric contents collected 4 hours later, Wistar male rats. As to the method:
Compounds of formula (1) according to the present invention were evaluated for possible antisecretory activity in pylorus-ligated rats. […] Wistar derived male rats weighing 210±10 g were fasted overnight. […] Animals were sacrificed 4 hours later and the gastric contents were collected. After centrifugation, the volume of each sample was measured and acidity was determined by titration.
On to `[2H]c1nc(C([2H])([2H])[S+]([O-])c2nc3cc(OC([2H])([2H])[2H])ccc3[nH]2)c(C([2H])([2H])[2H])c(OC([2H])([2H])[2H])c1C([2H])([2H])[2H]` (centres unmarked) [Example 10, d15-5-methoxy-2-(4-methoxy-3,5-dimethyl-pyridin-2-ylmethane-sulfinyl)-1H-benzimidazole], for which the “% inhibition relative to vehicle controls: Acidity (μEq/mL)” value turned out to be 89%, the “% inhibition relative to vehicle controls: Total Acid Output (μEq/4 hours)” value was found to be 95% and the “% inhibition relative to vehicle controls: Volume (mL/4 hours)” value is 55%.

System in the next data set: not given
Assay: not given
The note with it: at steady state, CYP2C19 poor vs extensive metabolizers; cited from earlier work.
For the molecule `COc1ccc2nc([S@@+]([O-])Cc3ncc(C)c(OC)c3C)[nH]c2c1` [esomeprazole, (S)-5-methoxy-2-(4-methoxy-3,5-dimethylpyridin-2-ylmethane-sulfinyl)-1H-benzimidazole], the “ratio of AUC in Poor metabolizers to AUC in the rest of the population (extensive metabolizers)” value was “approximately 2”.

Still in this data set, the particulars now being: human plasma, relative to omeprazole; cited from earlier work.
On to `COc1ccc2nc([S@@+]([O-])Cc3ncc(C)c(OC)c3C)[nH]c2c1` [esomeprazole, (S)-5-methoxy-2-(4-methoxy-3,5-dimethylpyridin-2-ylmethane-sulfinyl)-1H-benzimidazole], for which the “half-life in human plasma higher than that of omeprazole” value was 20%.

System in another data set: not given
Assay: not given
The note with it: human, topical or ocular.
Turning to `[2H]c1nc(C([2H])([2H])[S+]([O-])c2nc3cc(OC([2H])([2H])[2H])ccc3[nH]2)c(C([2H])([2H])[2H])c(OC([2H])([2H])[2H])c1C([2H])([2H])[2H]` (centres unmarked) [Example 10, d15-5-methoxy-2-(4-methoxy-3,5-dimethyl-pyridin-2-ylmethane-sulfinyl)-1H-benzimidazole], the “degradation half-life increased as compared to non-isotopically enriched omeprazole” value is listed as 20-60% and the “increase in the degradation half-life, as compared to the non-isotopically enriched drug” value (shortened to “increase … to the non-isotopically enriched drug”) is given as at least 10%.
With `[2H]c1nc(C[S+]([O-])c2nc3cc(OC([2H])([2H])[2H])ccc3[nH]2)c(C([2H])([2H])[2H])c(OC([2H])([2H])[2H])c1C([2H])([2H])[2H]` (centres unmarked) [Example 11, d13-5-methoxy-2-(4-methoxy-3,5-dimethylpyridin-2-ylmethane-sulfinyl)-1H-benzimidazole], the “degradation half-life increased as compared to non-isotopically enriched omeprazole” value is 20-60% and the “increase … to the non-isotopically enriched drug” value is at least 10%.
Consider `[2H]c1nc(C[S+]([O-])c2nc3cc(OC([2H])([2H])[2H])ccc3[nH]2)c(C([2H])([2H])[2H])c(OC)c1C([2H])([2H])[2H]` (centres unmarked) [Example 13, d10-5-methoxy-2-(4-methoxy-3,5-dimethylpyridin-2-ylmethane-sulfinyl)-1H-benzimidazole], for which the “increase … to the non-isotopically enriched drug” value is at least 10%.
The same measure, in the same setting: for `[2H]c1nc(C([2H])([2H])[S+]([O-])c2nc3cc(OC([2H])([2H])[2H])ccc3[nH]2)c(C([2H])([2H])[2H])c(OC)c1C([2H])([2H])[2H]` (centres unmarked) [Example 14, d12-5-methoxy-2-(4-methoxy-3,5-dimethylpyridin-2-ylmethane-sulfinyl)-1H-benzimidazole] the value was at least 10%.
Consider `[2H]c1nc(C([2H])([2H])[S+]([O-])c2nc3cc(OC)ccc3[nH]2)c(C([2H])([2H])[2H])c(OC([2H])([2H])[2H])c1C([2H])([2H])[2H]` (centres unmarked) [Example 18, d12-5-methoxy-2-(4-methoxy-3,5-dimethylpyridin-2-ylmethane-sulfinyl)-1H-benzimidazole], for which the “increase … to the non-isotopically enriched drug” value is on record as at least 10%.
In the case of `[2H]c1nc(C[S+]([O-])c2nc3cc(OC)ccc3[nH]2)c(C([2H])([2H])[2H])c(OC)c1C([2H])([2H])[2H]` (centres unmarked) [Example 19, d7-5-methoxy-2-(4-methoxy-3,5-dimethylpyridin-2-ylmethane-sulfinyl)-1H-benzimidazole], the “increase … to the non-isotopically enriched drug” value was at least 10%.
Still for that read-out and setting: for `[2H]c1nc(C[S+]([O-])c2nc3cc(OC)ccc3[nH]2)c(C([2H])([2H])[2H])c(OC([2H])([2H])[2H])c1C([2H])([2H])[2H]` (centres unmarked) [Example 20, d10-5-methoxy-2-(4-methoxy-3,5-dimethylpyridin-2-ylmethane-sulfinyl)-1H-benzimidazole] the value was at least 10%; for `[2H]c1nc(C([2H])([2H])[S+]([O-])c2nc3cc(OC)ccc3[nH]2)c(C([2H])([2H])[2H])c(OC)c1C([2H])([2H])[2H]` (centres unmarked) [Example 21, d9-5-methoxy-2-(4-methoxy-3,5-dimethylpyridin-2-ylmethane-sulfinyl)-1H-benzimidazole], at least 10%; for `[2H]C([2H])([2H])Oc1ccc2[nH]c([S+]([O-])C([2H])([2H])c3ncc(C)c(OC([2H])([2H])[2H])c3C)nc2c1` (centres unmarked) [Example 25, d8-5-methoxy-2-(4-methoxy-3,5-dimethylpyridin-2-ylmethane-sulfinyl)-1H-benzimidazole], at least 10%.
`[2H]C([2H])([2H])Oc1ccc2[nH]c([S+]([O-])Cc3ncc(C)c(OC)c3C)nc2c1` (centres unmarked) [Example 26, d3-5-methoxy-2-(4-methoxy-3,5-dimethylpyridin-2-ylmethane-sulfinyl)-1H-benzimidazole]: the “increase … to the non-isotopically enriched drug” value is on record as at least 10%.
Consider `[2H]C([2H])([2H])Oc1ccc2[nH]c([S+]([O-])Cc3ncc(C)c(OC([2H])([2H])[2H])c3C)nc2c1` (centres unmarked) [Example 27, d6-5-methoxy-2-(4-methoxy-3,5-dimethylpyridin-2-ylmethane-sulfinyl)-1H-benzimidazole], for which the “increase … to the non-isotopically enriched drug” value is on record as at least 10%.
Regarding `[2H]C([2H])([2H])Oc1ccc2[nH]c([S+]([O-])C([2H])([2H])c3ncc(C)c(OC)c3C)nc2c1` (centres unmarked) [Example 28, d5-5-methoxy-2-(4-methoxy-3,5-dimethylpyridin-2-ylmethane-sulfinyl)-1H-benzimidazole], the “increase … to the non-isotopically enriched drug” value is reported as at least 10%.
Still for that read-out and setting: the same measure for `[2H]C([2H])([2H])Oc1c(C)cnc(C([2H])([2H])[S+]([O-])c2nc3cc(OC)ccc3[nH]2)c1C` (centres unmarked) [Example 32, d5-5-methoxy-2-(4-methoxy-3,5-dimethylpyridin-2-ylmethane-sulfinyl)-1H-benzimidazole]: at least 10%; for `[2H]C([2H])([2H])Oc1c(C)cnc(C[S+]([O-])c2nc3cc(OC)ccc3[nH]2)c1C` (centres unmarked) [Example 34, d3-5-methoxy-2-(4-methoxy-3,5-dimethylpyridin-2-ylmethane-sulfinyl)-1H-benzimidazole]: at least 10%.
Regarding `[2H]c1nc(C[S@+]([O-])c2nc3cc(OC([2H])([2H])[2H])ccc3[nH]2)c(C([2H])([2H])[2H])c(OC([2H])([2H])[2H])c1C([2H])([2H])[2H]` [Example 39, d13-(S)-5-methoxy-2-(4-methoxy-3,5-dimethylpyridin-2-ylmethane-sulfinyl)-1H-benzimidazole], the “degradation half-life increased as compared to non-isotopically enriched omeprazole” value is 20-60% and the “increase … to the non-isotopically enriched drug” value is on record as at least 10%.
